Reference: patent publication US20230119539A1, “TRACELESS LINKERS AND PROTEIN-CONJUGATES THEREOF” (Regeneron Pharmaceuticals, Inc., priority 2019, published 2023)

Key:
[1] = Solubility of linker-payloads and quenched linker-payloads; format: physicochemical; settings: quenched linker-payloads, Table 6a
From the text: The quenched linker-payloads were water soluble and used for the pH stability test.

[2] = pH stability of quenched linker-payloads in buffers (LCMS); format: physicochemical; settings: RT
Description: To a solution of compound (payloads or quenched-linker-payloads) in DMSO (0.2-1.0 mg/mL) was added corresponding PBS buffer (V(buffer)/V(DMSO)=5) to give test samples (pH 3, 4, 5, 6, 7.4, and 8.5, or other special pH). The test samples were incubated at RT for at least 3 days and monitored by LCMS (i.e., at 1 hr, 2 hr, 4 hr, 8 hr, and 1 day, 2 day, 3 day, 4 day, 5 day, 6 day, 7 day, 8 day, 9 day, and 21 day time points). Initial concentrations of the samples were 0.2 mg/mL (DMSO/buffer, v/v=1/5). […] The payloads and quenched linker-payloads were mostly stable at pH >5.0, 6.0, 7.4 and 8.5 after 3 days. In more acidic conditions, such as pH 1.0, the payloads or linker-payloads were easily cleaved to release D*-OH.

[3] = Solubility of quenched linker-payloads; settings: Table 3c, linker-payloads quenched with taurine-PEG4-azide or CD-N3

CCCC1O[C@@H]2C[C@H]3[C@@H]4CCC5=CC(=O)C=C[C@]5(C)[C@H]4[C@@H](O)C[C@]3(C)[C@]2(C(=O)COC2CCCN2C(=O)CNC(=O)CCOCCOCCOCCOCCNC(=O)CCC(=O)N2Cc3ccccc3-c3c(nnn3CC3OC4OC5C(CO)OC(OC6C(CO)OC(OC7C(CO)OC(OC8C(CO)OC(OC9C(CO)OC(OC3C(O)C4O)C(O)C9O)C(O)C8O)C(O)C7O)C(O)C6O)C(O)C5O)-c3ccccc32)O1 (some centres unmarked) [Q2L6-PII-9]
92%: percentage of the remaining compound ([2]; DMSO, 7 Day) | percentage of the remaining compound ([2]; pH 5.0, 1 Day)
100%: percentage of the remaining compound ([2]; DMSO, 1 Day) | percentage of the remaining compound ([2]; DMSO, 2 Day) | percentage of the remaining compound ([2]; DMSO, 3 Day) | percentage of the remaining compound ([2]; DMSO, 4 Day) | percentage of the remaining compound ([2]; DMSO, 4 hr) | percentage of the remaining compound ([2]; pH 5.0, 4 hr) | percentage of the remaining compound ([2]; pH 7.4, 1 Day) | percentage of the remaining compound ([2]; pH 7.4, 2 Day) | percentage of the remaining compound ([2]; pH 7.4, 3 Day) | percentage of the remaining compound ([2]; pH 7.4, 4 Day) | percentage of the remaining compound ([2]; pH 7.4, 7 Day) | percentage of the remaining compound ([2]; pH 7.4, 1 hr) | percentage of the remaining compound ([2]; pH 7.4, 4 hr)
71%: percentage of the remaining compound ([2]; pH 4.0, 4 hr)
2%: percentage of the remaining compound ([2]; pH 4.0, 3 Day)
8%: percentage of the remaining compound ([2]; pH 3.0, 4 hr) | percentage of the remaining compound ([2]; pH 4.0, 2 Day)
66%: percentage of the remaining compound ([2]; pH 5.0, 7 Day)
86%: percentage of the remaining compound ([2]; pH 5.0, 2 Day)
82%: percentage of the remaining compound ([2]; pH 5.0, 3 Day)
>1000 µg/mL: Solubility [1] | Solubility [3]
25%: percentage of the remaining compound ([2]; pH 4.0, 1 Day)
0%: percentage of the remaining compound ([2]; pH 3.0, 1 Day) | percentage of the remaining compound ([2]; pH 4.0, 4 Day)
69%: percentage of the remaining compound ([2]; pH 5.0, 4 Day)

CCCC1O[C@@H]2C[C@H]3[C@@H]4CCC5=CC(=O)C=C[C@]5(C)[C@H]4[C@@H](O)C[C@]3(C)[C@]2(C(=O)COCNC(=O)CNC(=O)CCC(=O)N2Cc3ccccc3-c3c(nnn3CC3OC4OC5C(CO)OC(OC6C(CO)OC(OC7C(CO)OC(OC8C(CO)OC(OC9C(CO)OC(OC3C(O)C4O)C(O)C9O)C(O)C8O)C(O)C7O)C(O)C6O)C(O)C5O)-c3ccccc32)O1 (some centres unmarked) [Q2L7-PII-1]
100%: percentage of the remaining compound ([2]; pH 3.0, 1 Day) | percentage of the remaining compound ([2]; pH 3.0, 2 Day) | percentage of the remaining compound ([2]; pH 3.0, 1 hr) | percentage of the remaining compound ([2]; pH 3.0, 4 hr) | percentage of the remaining compound ([2]; pH 4.0, 1 Day) | percentage of the remaining compound ([2]; pH 4.0, 2 Day) | percentage of the remaining compound ([2]; pH 4.0, 3 Day) | percentage of the remaining compound ([2]; pH 4.0, 4 Day) | percentage of the remaining compound ([2]; pH 4.0, 7 Day) | percentage of the remaining compound ([2]; pH 4.0, 1 hr) | percentage of the remaining compound ([2]; pH 4.0, 4 hr) | percentage of the remaining compound ([2]; pH 5.0, 1 Day) | percentage of the remaining compound ([2]; pH 5.0, 2 Day) | percentage of the remaining compound ([2]; pH 5.0, 3 Day) | percentage of the remaining compound ([2]; pH 5.0, 4 Day) | percentage of the remaining compound ([2]; pH 5.0, 7 Day) | percentage of the remaining compound ([2]; pH 5.0, 1 hr) | percentage of the remaining compound ([2]; pH 5.0, 4 hr) | percentage of the remaining compound ([2]; pH 7.4, 1 Day) | percentage of the remaining compound ([2]; pH 7.4, 2 Day) | percentage of the remaining compound ([2]; pH 7.4, 3 Day) | percentage of the remaining compound ([2]; pH 7.4, 4 Day) | percentage of the remaining compound ([2]; pH 7.4, 7 Day) | percentage of the remaining compound ([2]; pH 7.4, 1 hr) | percentage of the remaining compound ([2]; pH 7.4, 4 hr)
95%: percentage of the remaining compound ([2]; pH 3.0, 4 Day)
97%: percentage of the remaining compound ([2]; DMSO, 1 Day) | percentage of the remaining compound ([2]; DMSO, 2 Day) | percentage of the remaining compound ([2]; DMSO, 3 Day) | percentage of the remaining compound ([2]; DMSO, 4 Day) | percentage of the remaining compound ([2]; DMSO, 7 Day) | percentage of the remaining compound ([2]; DMSO, 1 hr) | percentage of the remaining compound ([2]; DMSO, 4 hr)
>1000 µg/mL: Solubility [1] | Solubility [3]
91%: percentage of the remaining compound ([2]; pH 3.0, 7 Day)
96%: percentage of the remaining compound ([2]; pH 3.0, 3 Day)
